Assays:
Test in all cases: post-emergent herbicidal activity, greenhouse
Format in all cases: in vivo
[1] = tested on: Barnyardgrass; settings: 4 WAT
Outline: (§1)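 Seeds or propagules sown in compacted top soil, grown 2–3 weeks in greenhouse, then sprayed with compound solution/suspension containing ~0.4% emulsifier at tabulated rates. Injury scored visually versus untreated controls at ~2 and 4 weeks after treatment, expressed as a herbicidal activity index.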

[2] = tested on: Canada Thistle; settings: Table I, 4 WAT
Outline: as §1

[3] = tested on: Cocklebur; settings: 4 WAT
Outline: as §1

[4] = tested on: Crabgrass; settings: Table II, 4 WAT
Outline: as §1

[5] = tested on: Downy Brome; settings: 4 WAT
Outline: as §1

[6] = tested on: Hemp Sesbania; settings: Table II, 4 WAT
Outline: as §1

[7] = tested on: Johnsongrass; settings: Table I, 4 WAT
Outline: as §1

[8] = tested on: Lambsquarters; settings: 4 WAT
Outline: as §1

[9] = tested on: Morningglory; settings: 4 WAT
Outline: as §1

[10] = tested on: Panicum Spp; settings: Table II, 4 WAT
Outline: as §1

[11] = tested on: Quackgrass; settings: Table I, 4 WAT
Outline: as §1

[12] = tested on: Rice; settings: Table II, 4 WAT
Outline: as §1

[13] = tested on: Smartweed; settings: 4 WAT
Outline: as §1

[14] = tested on: Sorghum; settings: Table II, 4 WAT
Outline: as §1

[15] = tested on: Soybean; settings: Table II, 4 WAT
Outline: as §1

[16] = tested on: Sugar Beet; settings: Table II, 4 WAT
Outline: as §1

[17] = tested on: Velvetleaf; settings: 4 WAT
Outline: as §1

[18] = tested on: Wheat; settings: Table II, 4 WAT
Outline: as §1

[19] = tested on: Wild Buckwheat; settings: Table II, 4 WAT
Outline: as §1

[20] = tested on: Yellow Nutsedge; settings: Table I, 4 WAT
Outline: as §1

CCOC(=O)CNCP(=O)(OC(C)C#N)OC(C)C#N (centres unmarked) [Example 1, glycine, N-[[bis(1-cyanoethoxy)phosphinyl]methyl], ethyl ester]
post-emergent herbicidal activity index ([1]; Table I, 5.6 kg/h): 4 (100% control)
post-emergent herbicidal activity index ([1]; Table I, 11.2 kg/h): 4 (100% control)
post-emergent herbicidal activity index ([1]; Table II, 0.28 kg/h): 2 (50-74% control)
post-emergent herbicidal activity index ([1]; Table II, 1.12 kg/h): 3 (75-99% control)
post-emergent herbicidal activity index ([1]; Table II, 5.6 kg/h): 4 (100% control)
post-emergent herbicidal activity index ([2]; 5.6 kg/h): 4 (100% control)
post-emergent herbicidal activity index ([2]; 11.2 kg/h): 3 (75-99% control)
post-emergent herbicidal activity index ([3]; Table I, 5.6 kg/h): 3 (75-99% control)
post-emergent herbicidal activity index ([3]; Table I, 11.2 kg/h): 3 (75-99% control)
post-emergent herbicidal activity index ([3]; Table II, 0.28 kg/h): 1 (25-49% control)
post-emergent herbicidal activity index ([3]; Table II, 1.12 kg/h): 2 (50-74% control)
post-emergent herbicidal activity index ([3]; Table II, 5.6 kg/h): 3 (75-99% control)
post-emergent herbicidal activity index ([4]; 0.28 kg/h): 1 (25-49% control)
post-emergent herbicidal activity index ([4]; 1.12 kg/h): 3 (75-99% control)
post-emergent herbicidal activity index ([4]; 5.6 kg/h): 4 (100% control)
post-emergent herbicidal activity index ([5]; Table I, 5.6 kg/h): 3 (75-99% control)
post-emergent herbicidal activity index ([5]; Table I, 11.2 kg/h): 2 (50-74% control)
post-emergent herbicidal activity index ([5]; Table II, 0.28 kg/h): 0 (0-24% control)
post-emergent herbicidal activity index ([5]; Table II, 1.12 kg/h): 2 (50-74% control)
post-emergent herbicidal activity index ([5]; Table II, 5.6 kg/h): 4 (100% control)
post-emergent herbicidal activity index ([6]; 0.28 kg/h): 0 (0-24% control)
post-emergent herbicidal activity index ([6]; 1.12 kg/h): 5
post-emergent herbicidal activity index ([6]; 5.6 kg/h): 2 (50-74% control)
post-emergent herbicidal activity index ([7]; 5.6 kg/h): 3 (75-99% control)
post-emergent herbicidal activity index ([7]; 11.2 kg/h): 4 (100% control)
post-emergent herbicidal activity index ([8]; Table I, 5.6 kg/h): 3 (75-99% control)
post-emergent herbicidal activity index ([8]; Table I, 11.2 kg/h): 1 (25-49% control)
post-emergent herbicidal activity index ([8]; Table II, 0.28 kg/h): 0 (0-24% control)
post-emergent herbicidal activity index ([8]; Table II, 1.12 kg/h): 3 (75-99% control)
post-emergent herbicidal activity index ([8]; Table II, 5.6 kg/h): 3 (75-99% control)
post-emergent herbicidal activity index ([9]; Table I, 5.6 kg/h): 3 (75-99% control)
post-emergent herbicidal activity index ([9]; Table I, 11.2 kg/h): 3 (75-99% control)
post-emergent herbicidal activity index ([9]; Table II, 0.28 kg/h): 1 (25-49% control)
post-emergent herbicidal activity index ([9]; Table II, 1.12 kg/h): 2 (50-74% control)
post-emergent herbicidal activity index ([9]; Table II, 5.6 kg/h): 3 (75-99% control)
post-emergent herbicidal activity index ([10]; 0.28 kg/h): 2 (50-74% control)
post-emergent herbicidal activity index ([10]; 1.12 kg/h): 4 (100% control)
post-emergent herbicidal activity index ([10]; 5.6 kg/h): 4 (100% control)
post-emergent herbicidal activity index ([11]; 5.6 kg/h): 3 (75-99% control)
post-emergent herbicidal activity index ([11]; 11.2 kg/h): 2 (50-74% control)
post-emergent herbicidal activity index ([12]; 0.28 kg/h): 0 (0-24% control)
post-emergent herbicidal activity index ([12]; 1.12 kg/h): 1 (25-49% control)
post-emergent herbicidal activity index ([12]; 5.6 kg/h): 4 (100% control)
post-emergent herbicidal activity index ([13]; Table I, 5.6 kg/h): 3 (75-99% control)
post-emergent herbicidal activity index ([13]; Table I, 11.2 kg/h): 4 (100% control)
post-emergent herbicidal activity index ([13]; Table II, 0.28 kg/h): 0 (0-24% control)
post-emergent herbicidal activity index ([13]; Table II, 1.12 kg/h): 3 (75-99% control)
post-emergent herbicidal activity index ([13]; Table II, 5.6 kg/h): 4 (100% control)
post-emergent herbicidal activity index ([14]; 0.28 kg/h): 1 (25-49% control)
post-emergent herbicidal activity index ([14]; 1.12 kg/h): 3 (75-99% control)
post-emergent herbicidal activity index ([14]; 5.6 kg/h): 4 (100% control)
post-emergent herbicidal activity index ([15]; 0.28 kg/h): 0 (0-24% control)
post-emergent herbicidal activity index ([15]; 1.12 kg/h): 2 (50-74% control)
post-emergent herbicidal activity index ([15]; 5.6 kg/h): 4 (100% control)
post-emergent herbicidal activity index ([16]; 0.28 kg/h): 2 (50-74% control)
post-emergent herbicidal activity index ([16]; 1.12 kg/h): 4 (100% control)
post-emergent herbicidal activity index ([16]; 5.6 kg/h): 4 (100% control)
post-emergent herbicidal activity index ([17]; Table I, 5.6 kg/h): 4 (100% control)
post-emergent herbicidal activity index ([17]; Table I, 11.2 kg/h): 3 (75-99% control)
post-emergent herbicidal activity index ([17]; Table II, 0.28 kg/h): 0 (0-24% control)
post-emergent herbicidal activity index ([17]; Table II, 1.12 kg/h): 2 (50-74% control)
post-emergent herbicidal activity index ([17]; Table II, 5.6 kg/h): 4 (100% control)
post-emergent herbicidal activity index ([18]; 0.28 kg/h): 1 (25-49% control)
post-emergent herbicidal activity index ([18]; 1.12 kg/h): 2 (50-74% control)
post-emergent herbicidal activity index ([18]; 5.6 kg/h): 4 (100% control)
post-emergent herbicidal activity index ([19]; 0.28 kg/h): 0 (0-24% control)
post-emergent herbicidal activity index ([19]; 1.12 kg/h): 2 (50-74% control)
post-emergent herbicidal activity index ([19]; 5.6 kg/h): 4 (100% control)
post-emergent herbicidal activity index ([20]; 5.6 kg/h): 2 (50-74% control)
post-emergent herbicidal activity index ([20]; 11.2 kg/h): 3 (75-99% control)

CCOC(=O)CNCP(=O)(O)OCC(Cl)(Cl)Cl [Example 26, glycine, N-[[(2,2,2-trichloroethoxy)hydroxyphosphinyl]methyl]-ethyl ester]
post-emergent herbicidal activity index ([1]; Table I, 11.2 kg/h): 1 (25-49% control)
post-emergent herbicidal activity index ([1]; Table I, 56.0 kg/h): 1 (25-49% control)
post-emergent herbicidal activity index ([2]; 11.2 kg/h): 0 (0-24% control)
post-emergent herbicidal activity index ([2]; 56.0 kg/h): 0 (0-24% control)
post-emergent herbicidal activity index ([3]; Table I, 11.2 kg/h): 1 (25-49% control)
post-emergent herbicidal activity index ([3]; Table I, 56.0 kg/h): 1 (25-49% control)
post-emergent herbicidal activity index ([5]; Table I, 11.2 kg/h): 0 (0-24% control)
post-emergent herbicidal activity index ([5]; Table I, 56.0 kg/h): 0 (0-24% control)
post-emergent herbicidal activity index ([7]; 11.2 kg/h): 0 (0-24% control)
post-emergent herbicidal activity index ([7]; 56.0 kg/h): 0 (0-24% control)
post-emergent herbicidal activity index ([8]; Table I, 11.2 kg/h): 1 (25-49% control)
post-emergent herbicidal activity index ([8]; Table I, 56.0 kg/h): 1 (25-49% control)
post-emergent herbicidal activity index ([9]; Table I, 11.2 kg/h): 0 (0-24% control)
post-emergent herbicidal activity index ([9]; Table I, 56.0 kg/h): 1 (25-49% control)
post-emergent herbicidal activity index ([11]; 11.2 kg/h): 0 (0-24% control)
post-emergent herbicidal activity index ([11]; 56.0 kg/h): 0 (0-24% control)
post-emergent herbicidal activity index ([13]; Table I, 11.2 kg/h): 0 (0-24% control)
post-emergent herbicidal activity index ([13]; Table I, 56.0 kg/h): 1 (25-49% control)
post-emergent herbicidal activity index ([17]; Table I, 11.2 kg/h): 0 (0-24% control)
post-emergent herbicidal activity index ([17]; Table I, 56.0 kg/h): 0 (0-24% control)
post-emergent herbicidal activity index ([20]; 11.2 kg/h): 0 (0-24% control)
post-emergent herbicidal activity index ([20]; 56.0 kg/h): 1 (25-49% control)
